Laboratory results taken from ChEMBL document CHEMBL5661982 (Mol Cancer Ther, 2012).
The source made the active and inactive calls. No cut-off for these calls is given here.

Key:
[1] = Inhibition of human c-Met V1092I mutant expressed in mouse NIH3T3 cells assessed as reduction in HGF-stimulated c-Met phosphorylation incubated for 1 hr by ELISA analysis; details: NIH3T3, 1 h
[2] = tested on: HUVEC; assay: Inhibition of cell invasion in HGF-stimulated HUVEC cells incubated for 48 hrs by Matrigel based analysis; details: Homo sapiens
[3] = tested on: PC-3; assay: Antiproliferative activity against human PC-3 cells over expressing c-Met assessed as reduction in cell viability after 48 to 72 hrs by MTT assay
[4] = tested on: HCT-116; assay: Antiproliferative activity against human HCT-116 cells over expressing c-Met assessed as reduction in cell viability after 48 to 72 hrs by MTT assay
[5] = tested on: GTL 16; details: Homo sapiens, dose 0.3-10 mg/kg, route po, time 4.0 day
[6] = tested on: U-87MG ATCC; details: Homo sapiens, dose 5-50 mg/kg, route po, time 3.0 day
[7] = tested on: GTL 16; details: Homo sapiens, dose 0.3-10 mg/kg, route po, time 4.0 day; remark: listed apart in the source
[8] = tested on: U-87 MG; details: Homo sapiens; U-87MG ATCC; dose 5-50 mg/kg, route po, time 3.0 day
[9] = tested on: U-87MG ATCC; details: Homo sapiens, dose 5-50 mg/kg, route po, time 3.0 day; remark: listed apart in the source
[10] = target: SLC34A2-ROS1 (Homo sapiens, UniProt P08922); assay: Inhibition of SLC34A2-Ros phosphorylation in human HCC87 cells incubated for 1 hr by sandwich ELISA analysis
[11] = tested on: U-87 MG; assay: Antitumor activity against human U-87 MG cells xenografted in athymic nu/nu mouse assessed as tumor growth inhibition at 1 mg/kg, po for 9 days relative to control; details: 216 h, read-out: TGI
[12] = target: Tyrosine-protein kinase receptor UFO (Homo sapiens, UniProt P30530); assay: Inhibition of AXL expressed in HEK293 cells assessed as reduction in Gas6-stimulated AXL phosphorylation incubated for 1 hr by sandwich ELISA analysis
Sequence of Tyrosine-protein kinase receptor UFO (P30530 whole entry): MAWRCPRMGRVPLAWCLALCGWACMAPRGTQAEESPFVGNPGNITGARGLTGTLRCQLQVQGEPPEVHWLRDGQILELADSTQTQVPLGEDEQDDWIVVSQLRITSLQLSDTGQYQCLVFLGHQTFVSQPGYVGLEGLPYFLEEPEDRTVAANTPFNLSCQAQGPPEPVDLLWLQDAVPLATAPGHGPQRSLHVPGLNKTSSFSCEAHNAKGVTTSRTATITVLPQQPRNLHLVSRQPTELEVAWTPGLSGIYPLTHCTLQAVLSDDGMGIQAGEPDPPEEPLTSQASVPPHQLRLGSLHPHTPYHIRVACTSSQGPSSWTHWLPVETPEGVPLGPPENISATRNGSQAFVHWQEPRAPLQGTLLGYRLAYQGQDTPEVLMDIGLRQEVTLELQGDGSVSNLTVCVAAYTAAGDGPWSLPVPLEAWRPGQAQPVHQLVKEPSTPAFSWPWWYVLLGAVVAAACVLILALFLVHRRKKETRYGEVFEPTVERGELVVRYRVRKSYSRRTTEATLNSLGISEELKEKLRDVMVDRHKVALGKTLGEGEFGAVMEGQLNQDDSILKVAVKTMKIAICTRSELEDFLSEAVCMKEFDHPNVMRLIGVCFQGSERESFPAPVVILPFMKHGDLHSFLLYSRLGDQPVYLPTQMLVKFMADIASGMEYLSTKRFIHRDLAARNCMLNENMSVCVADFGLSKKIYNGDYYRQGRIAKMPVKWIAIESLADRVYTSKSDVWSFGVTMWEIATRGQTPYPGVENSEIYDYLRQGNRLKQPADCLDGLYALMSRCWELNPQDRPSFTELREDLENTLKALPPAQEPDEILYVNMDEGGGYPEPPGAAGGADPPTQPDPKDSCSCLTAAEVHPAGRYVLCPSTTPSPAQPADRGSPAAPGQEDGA

[13] = tested on: GTL 16; details: Homo sapiens, dose 3-30 mg/kg, route po, time 4.0 day
[14] = tested on: SW-620; assay: Antitumor activity against human SW620 cells xenografted in athymic nu/nu mouse assessed as tumor growth inhibition at 40 mg/kg/day, po for 25 days relative to control; details: SW-620, po, 600 h, read-out: TGI
[15] = tested on: U-87MG ATCC; details: Homo sapiens, dose 5-50 mg/kg, route po, time 3.0 day; remark: listed apart in the source
[16] = tested on: COLO 205; assay: Antiproliferative activity against human COLO 205 cells over expressing c-Met assessed as reduction in cell viability after 48 to 72 hrs by MTT assay
[17] = tested on: MDA-MB-231; assay: Antiproliferative activity against human MDA-MB-231 cells over expressing c-Met assessed as reduction in cell viability after 48 to 72 hrs by MTT assay
[18] = tested on: U-87MG ATCC; details: Homo sapiens, dose 5-50 mg/kg, route po, time 3.0 day; remark: listed apart in the source
[19] = Inhibition of c-Met R988C mutant phosphorylation in human NCI-H69 cells assessed as reduction in HGF-stimulated c-Met phosphorylation incubated for 1 hr by ELISA analysis; details: NCI-H69, 1 h
[20] = tested on: HT-29; assay: Antitumor activity against human HT-29 cells transfected with RON shRNA xenografted in athymic nu/nu mouse assessed as tumor growth inhibition at 50 mg/kg/day, po for 21 days relative to control; details: HT-29, po, 504 h, read-out: TGI
[21] = target: Insulin-like growth factor 1 receptor (Mus musculus, UniProt Q60751); assay: Inhibition of IGF1R expressed in mouse NIH3T3 cells assessed as reduction in IGF-stimulated IGF1R phosphorylation incubated for 1 hr by sandwich ELISA analysis
Sequence of Insulin-like growth factor 1 receptor (Q60751 31-737 limits assumed): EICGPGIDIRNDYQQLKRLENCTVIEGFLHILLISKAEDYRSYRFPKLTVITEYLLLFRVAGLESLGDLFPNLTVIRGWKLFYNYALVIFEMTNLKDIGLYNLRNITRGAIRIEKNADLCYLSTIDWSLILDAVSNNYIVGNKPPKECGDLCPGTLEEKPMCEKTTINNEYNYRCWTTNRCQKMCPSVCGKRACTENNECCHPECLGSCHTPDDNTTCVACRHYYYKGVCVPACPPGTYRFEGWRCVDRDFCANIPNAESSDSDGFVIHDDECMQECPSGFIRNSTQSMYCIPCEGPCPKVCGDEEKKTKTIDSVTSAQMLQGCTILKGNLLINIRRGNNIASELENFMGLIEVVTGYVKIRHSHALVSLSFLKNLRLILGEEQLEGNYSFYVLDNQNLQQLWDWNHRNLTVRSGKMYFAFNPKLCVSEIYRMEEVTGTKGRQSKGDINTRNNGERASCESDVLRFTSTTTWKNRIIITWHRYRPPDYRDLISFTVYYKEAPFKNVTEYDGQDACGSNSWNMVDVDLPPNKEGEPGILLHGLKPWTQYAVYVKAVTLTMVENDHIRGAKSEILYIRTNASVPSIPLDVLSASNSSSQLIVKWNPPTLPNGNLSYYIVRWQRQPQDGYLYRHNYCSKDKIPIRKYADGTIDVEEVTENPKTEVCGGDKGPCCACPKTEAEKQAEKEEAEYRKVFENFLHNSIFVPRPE
Sequence of Insulin-like growth factor 1 receptor (Q60751 742-1373 limits assumed): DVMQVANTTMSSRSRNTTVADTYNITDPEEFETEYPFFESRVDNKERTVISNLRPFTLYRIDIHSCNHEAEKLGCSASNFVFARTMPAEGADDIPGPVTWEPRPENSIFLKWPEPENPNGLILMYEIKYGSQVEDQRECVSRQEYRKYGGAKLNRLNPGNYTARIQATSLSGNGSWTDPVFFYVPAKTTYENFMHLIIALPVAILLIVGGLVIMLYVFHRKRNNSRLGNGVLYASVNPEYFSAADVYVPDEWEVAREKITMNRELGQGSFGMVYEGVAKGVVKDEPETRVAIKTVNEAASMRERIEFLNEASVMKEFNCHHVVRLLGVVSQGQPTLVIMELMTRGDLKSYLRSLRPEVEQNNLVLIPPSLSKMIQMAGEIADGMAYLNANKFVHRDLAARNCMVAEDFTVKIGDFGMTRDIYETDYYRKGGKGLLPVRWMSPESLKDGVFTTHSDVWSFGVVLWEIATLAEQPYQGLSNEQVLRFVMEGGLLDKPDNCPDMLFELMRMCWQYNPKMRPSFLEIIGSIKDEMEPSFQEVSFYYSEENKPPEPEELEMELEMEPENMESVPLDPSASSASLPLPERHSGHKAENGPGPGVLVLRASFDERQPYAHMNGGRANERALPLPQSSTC

[22] = tested on: MDA-MB-468; assay: Antiproliferative activity against human MDA-MB-468 cells over expressing c-Met assessed as reduction in cell viability after 48 to 72 hrs by MTT assay
[23] = tested on: HT-29; details: Homo sapiens, dose 50.0 mg/kg/day, route po, time 21.0 day
[24] = tested on: U-87MG ATCC; details: Homo sapiens, dose 5-50 mg/kg, route po, time 3.0 day; remark: listed apart in the source
[25] = tested on: U-87MG ATCC; details: Homo sapiens, dose 5-50 mg/kg, route po, time 3.0 day; remark: listed apart in the source
[26] = tested on: U-87MG ATCC; details: Homo sapiens, dose 5-50 mg/kg, route po, time 3.0 day; remark: listed apart in the source
[27] = tested on: NCI-H441; assay: Inhibition of cell invasion in HGF-stimulated human NCI-H441 cells over expressing c-Met incubated for 48 hrs by Matrigel based analysis; details: NCI-H441, 48 h
[28] = tested on: U-87 MG; assay: Antitumor activity against human U-87 MG cells xenografted in athymic nu/nu mouse assessed as tumor growth inhibition at 0.3 mg/kg, po for 9 days relative to control; details: 216 h, read-out: TGI
[29] = tested on: U-87 MG; assay: Antitumor activity against human U-87 MG cells xenografted in athymic nu/nu mouse assessed as tumor growth inhibition at 3 mg/kg, po for 9 days relative to control; details: 216 h, read-out: TGI
[30] = tested on: GTL 16 cell line; assay: Antitumor activity against human GTL 16 cells xenografted in athymic nu/nu mouse assessed as tumor growth inhibition at 10 mg/kg, po administered for 16 days relative to control; details: GTL 16, po, 384 h, read-out: TGI
[31] = target: Hepatocyte growth factor receptor (Mus musculus, UniProt P16056); assay: Inhibition of c-Met phosphorylation in HGF-stimulated mIMCD3 cells incubated for 1 hr by sandwich ELISA analysis
Sequence of Hepatocyte growth factor receptor (P16056 whole entry): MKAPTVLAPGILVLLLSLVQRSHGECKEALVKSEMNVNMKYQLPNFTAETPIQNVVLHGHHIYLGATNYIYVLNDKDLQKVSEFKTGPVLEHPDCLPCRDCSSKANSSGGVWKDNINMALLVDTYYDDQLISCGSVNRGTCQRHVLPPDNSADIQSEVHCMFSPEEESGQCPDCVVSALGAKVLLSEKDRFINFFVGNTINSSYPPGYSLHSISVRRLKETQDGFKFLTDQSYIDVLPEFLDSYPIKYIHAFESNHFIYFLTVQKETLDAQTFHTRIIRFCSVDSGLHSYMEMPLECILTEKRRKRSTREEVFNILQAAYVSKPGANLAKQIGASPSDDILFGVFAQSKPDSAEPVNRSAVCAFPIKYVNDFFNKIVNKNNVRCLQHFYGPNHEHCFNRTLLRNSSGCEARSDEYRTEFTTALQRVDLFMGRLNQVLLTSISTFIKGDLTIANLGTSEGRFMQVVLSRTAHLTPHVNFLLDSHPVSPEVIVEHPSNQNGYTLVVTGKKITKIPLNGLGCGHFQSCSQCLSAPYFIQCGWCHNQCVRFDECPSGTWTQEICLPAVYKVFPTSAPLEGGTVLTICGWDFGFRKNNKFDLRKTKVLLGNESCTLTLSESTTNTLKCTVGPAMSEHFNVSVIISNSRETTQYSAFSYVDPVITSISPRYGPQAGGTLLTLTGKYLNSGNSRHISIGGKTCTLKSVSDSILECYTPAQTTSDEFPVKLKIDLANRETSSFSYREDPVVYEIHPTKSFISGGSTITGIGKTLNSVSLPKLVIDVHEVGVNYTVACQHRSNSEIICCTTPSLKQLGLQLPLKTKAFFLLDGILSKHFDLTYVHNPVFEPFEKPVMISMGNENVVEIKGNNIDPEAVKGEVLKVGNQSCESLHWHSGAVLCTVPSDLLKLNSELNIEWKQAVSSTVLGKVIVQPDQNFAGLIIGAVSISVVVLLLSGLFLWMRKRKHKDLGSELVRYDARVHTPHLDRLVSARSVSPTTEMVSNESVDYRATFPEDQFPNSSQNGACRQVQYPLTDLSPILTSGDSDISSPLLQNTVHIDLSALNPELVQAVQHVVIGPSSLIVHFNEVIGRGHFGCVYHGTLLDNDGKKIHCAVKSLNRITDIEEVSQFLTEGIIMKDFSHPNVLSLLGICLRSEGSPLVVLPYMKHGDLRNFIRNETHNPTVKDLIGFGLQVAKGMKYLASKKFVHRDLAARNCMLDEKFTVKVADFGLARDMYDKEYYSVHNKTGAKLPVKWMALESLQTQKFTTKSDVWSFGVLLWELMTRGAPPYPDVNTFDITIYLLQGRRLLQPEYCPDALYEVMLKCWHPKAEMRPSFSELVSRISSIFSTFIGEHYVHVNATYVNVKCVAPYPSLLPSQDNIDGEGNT

[32] = tested on: GTL 16; details: Homo sapiens, dose 0.3-10 mg/kg, route po, time 4.0 day; remark: listed apart in the source
[33] = tested on: GTL 16 cell line; assay: Antitumor activity against human GTL 16 cells xenografted in athymic nu/nu mouse assessed as tumor growth inhibition at 1 mg/kg, po administered for 16 days relative to control; details: GTL 16, po, 384 h, read-out: TGI

In the case of OCCn1cc(-c2cnc3nnn(Cc4ccc5ncccc5c4)c3n2)cn1 [PF-04217903], the IC50 [1] is reported as 16 nM, the IC50 [2] is reported as 27 nM and the IC50 [3] is reported as > 10000 nM. The IC50 [4] was > 10000 nM, the inhibition [5] was “Dose-Dependent Effect” and the inhibition [6] was “Active”. For the same compound, the inhibition [7] was “Dose-Dependent Effect”, the inhibition [8] was “Active” and the inhibition [9] was “inactive”. The IC50 [10] was > 10000 nM, the inhibition in vivo at 1 mg/kg [11] was 30% and the IC50 [12] was > 10000 nM. The inhibition [13] was “Dose-Dependent Effect”, the inhibition in vivo at 40 mg/kg/day [14] was 45% and the inhibition [15] was “Active”. For the same compound, the IC50 [16] was > 10000 nM, the IC50 [17] was > 10000 nM and the inhibition [18] was “Active”. For the same compound, the IC50 [19] was 6.4 nM, the inhibition in vivo at 50 mg/kg/day [20] was 77% and the IC50 [21] was > 10000 nM. For the same compound, the IC50 [22] was > 10000 nM, the inhibition [23] was “inactive” and the inhibition [24] was “Active”. The inhibition [25] was “inactive”, the inhibition [26] was “Active” and the IC50 [27] was 12.5 nM. For the same compound, the inhibition in vivo at 0.3 mg/kg [28] was 20%, the inhibition in vivo at 3 mg/kg [29] was 48% and the inhibition in vivo at 10 mg/kg [30] was 90%. For the same compound, the IC50 [31] was 6.9 nM, the inhibition [32] was “Dose-Dependent Effect” and the inhibition in vivo at 1 mg/kg [33] was 64%.
